Assay results: patent publication US11033535B2, “Oxadiazoles and thiadiazoles as TGF-β inhibitors” (Southern Research Institute, priority 2017, dated 2021)
Where two headings read alike, the source gives them in different places.

Test: Pharmacokinetic evaluation following a single oral and intravenous administration
Assay type: in vivo, CD1 mouse
Details: CD1, mouse, plasma; for C0 / AUC(0-inf) / AUC(0-t) / MRT inf / half-life / Vd: Table 4, IV Dose: 1 mg/kg
Description: A NMP stock solution was prepared by adding 1.136 mL of NMP to 5.68 mg of compound no. 42140 with vortexing and sonification, to obtain a solution with a concentration at 5 mg/mL of 42140:01. Next, to prepare an intravenous formulation, 0.100 mL of the 5 mg/mL stock solution was placed in a new vial. 0.100 mL of NMP and 0.400 mL of PEG400 were added with vortexing and sonification, followed by addition of 0.400 mL of saline with vortexing and sonification. […] 42140:01. Alternatively, to prepare an oral formulation, 0.200 mL of the 5 mg/mL stock solution was placed in a new vial. 0.400 mL of PEG400 was added with vortexing and sonification, followed by addition of 0.400 mL of saline with vortexing and sonifiction. […] 42140:01.
(§1) Briefly, the desired serial concentrations of working solutions were achieved by diluting a stock solution of the compound with 100% acetonitrile. 3 μL of working solutions (5, 10, 20, 50, 100, 500, 1000, 5000, 10000 ng/mL) were added to 30 μL of the blank CD1 mouse plasma to achieve calibration standards of 0.5-1000 ng/mL (0.5, 1, 2, 5, 10, 50, 100, 500, 1000 ng/mL) in a total volume of 33 μL. Five quality control samples at 1 ng/mL, 2 ng/mL, 5 ng/mL, 50 ng/mL and 800 ng/mL for plasma were prepared independently of those used for the calibration curves. These QC samples were prepared on the day of analysis in the same way as calibration standards.
Next, 33 μL standards, 33 μL QC samples, and 33 μL unknown samples (30 μL plasma with 3 μL blank solution) were added to 200 μL of acetonitrile containing IS mixture for precipitating protein, respectively. Then the samples were vortexed for 30 s. After centrifugation at 4 degree Celsius, 4000 rpm for 15 min, 3 μL of supernatant was injected into the LC/MS/MS system for quantitative analysis.
HPLC analysis was performed using 100% water with 0.1% formic acid (Solution A) and 100% acetonitrile with 0.1% formic acid (Solution B) with a flow rate of 0.6 mL/min.
A NMP stock solution was prepared by adding 2.092 mL of NMP to 10.46 mg of […] with vortexing and sonification, to obtain a solution with a concentration at 5 mg/mL of […]. Next, to prepare an intravenous formulation, 0.100 mL of the 5 mg/mL stock solution was placed in a new vial. 0.100 mL of NMP and 0.400 mL of PEG400 were added with vortexing and sonification, followed by addition of 0.400 mL of saline with vortexing and sonification. […] 42320:01. Alternatively, to prepare an oral formulation, 0.200 mL of the 5 mg/mL stock solution was placed in a new vial. 0.400 mL of PEG400 was added with vortexing and sonification, followed by addition of 0.400 mL of saline with vortexing and sonifiction. […] 42320:01.
as §1, with “50 ng/mL,” for “50 ng/mL”

[1] = iv, 1 mg/kg, Table 3, IV Dose: 1 mg/kg, Mouse 1, read-out: Concentration
[2] = iv, 1 mg/kg, Table 3, IV Dose: 1 mg/kg, Mouse 2, read-out: Concentration
[3] = iv, 1 mg/kg, Table 3, IV Dose: 1 mg/kg, Mouse 3, read-out: Concentration
[4] = iv, 1 mg/kg, Table 3, IV Dose: 1 mg/kg, mean, read-out: Concentration, Mean
[5] = po, 5 mg/kg, Table 5, PO Dose: 5 mg/kg, Mouse 4, read-out: Concentration
[6] = po, 5 mg/kg, Table 5, PO Dose: 5 mg/kg, Mouse 5, read-out: Concentration
[7] = po, 5 mg/kg, Table 5, PO Dose: 5 mg/kg, Mouse 6, read-out: Concentration
[8] = po, 5 mg/kg, Table 5, PO Dose: 5 mg/kg, mean, read-out: Concentration, Mean

In the case of `CNCc1ccc(C[C@H](NC(C)=O)c2nnc(-c3cccc(OC(F)(F)F)c3)s2)cc1` [Compound 42140, N-(2-(4-((methylamino)methyl)phenyl)-1-(5-(3-(trifluoromethoxy)phenyl)-1,3,4-thiadiazol-2-yl)ethyl)acetamide], the concentration at 5 min [1] is reported as 96.6 ng/mL, the concentration at 5 min [2] is reported as 89.5 ng/mL and the concentration at 5 min [3] is reported as 86.3 ng/mL. It also gave a concentration at 5 min [4] of 90.8 ng/mL, a concentration at 0.25 h [1] of 81.5 ng/mL and a concentration at 0.25 h [2] of 65 ng/mL. The concentration at 0.25 h [3] was 74.2 ng/mL, the concentration at 0.25 h [4] was 73.6 ng/mL and the concentration at 0.5 h [1] was 57.2 ng/mL. It also gave a concentration at 0.5 h [2] of 53.8 ng/mL, a concentration at 0.5 h [3] of 48.1 ng/mL and a concentration at 0.5 h [4] of 53 ng/mL. It also gave a concentration at 1 h [1] of 57.8 ng/mL, a concentration at 1 h [2] of 42.1 ng/mL and a concentration at 1 h [3] of 43.7 ng/mL. The concentration at 1 h [4] was 47.9 ng/mL, the concentration at 2 h [1] was 43.7 ng/mL and the concentration at 2 h [2] was 34.1 ng/mL. The concentration at 2 h [3] was 39.9 ng/mL, the concentration at 2 h [4] was 39.2 ng/mL and the concentration at 4 h [1] was 26.1 ng/mL. The concentration at 4 h [2] was 18.8 ng/mL, the concentration at 4 h [3] was 23.3 ng/mL and the concentration at 4 h [4] was 22.7 ng/mL. For the same compound, the concentration at 8 h [1] was 16.9 ng/mL, the concentration at 8 h [2] was 15.5 ng/mL and the concentration at 8 h [3] was 14.9 ng/mL. It also gave a concentration at 8 h [4] of 15.8 ng/mL, a concentration at 24 h [1] of 6.4 ng/mL and a concentration at 24 h [2] of 5.76 ng/mL. For the same compound, the concentration at 24 h [3] was 4.27 ng/mL, the concentration at 24 h [4] was 5.48 ng/mL and the C0 (iv, 1 mg/kg, Mouse 1) was 105 ng/mL. The AUC(0-inf) (iv, 1 mg/kg, Mouse 1, read-out: AUCInf) was 557 ng·h/mL, the AUC(0-t) (iv, 1 mg/kg, Mouse 1, read-out: AUClast) was 462 ng·h/mL and the MRT inf (iv, 1 mg/kg, Mouse 1, read-out: MRTInf—obs) was 12.1 h. It also gave a half-life (iv, 1 mg/kg, Mouse 1, read-out: T1/2 (converted)) of 10.3 h, a Vd (iv, 1 mg/kg, Mouse 1, read-out: Vss—obs) of 21.8 L/kg and a C0 (iv, 1 mg/kg, Mouse 2) of 105 ng/mL. It also gave an AUC(0-inf) (iv, 1 mg/kg, Mouse 2, read-out: AUCInf) of 486 ng·h/mL, an AUC(0-t) (iv, 1 mg/kg, Mouse 2, read-out: AUClast) of 389 ng·h/mL and an MRT inf (iv, 1 mg/kg, Mouse 2, read-out: MRTInf—obs) of 13.7 h. The half-life (iv, 1 mg/kg, Mouse 2, read-out: T1/2 (converted)) was 11.6 h, the Vd (iv, 1 mg/kg, Mouse 2, read-out: Vss—obs) was 28.1 L/kg and the C0 (iv, 1 mg/kg, Mouse 3) was 93 ng/mL. For the same compound, the AUC(0-inf) (iv, 1 mg/kg, Mouse 3, read-out: AUCInf) was 445 ng·h/mL, the AUC(0-t) (iv, 1 mg/kg, Mouse 3, read-out: AUClast) was 394 ng·h/mL and the MRT inf (iv, 1 mg/kg, Mouse 3, read-out: MRTInf—obs) was 9.69 h. For the same compound, the half-life (iv, 1 mg/kg, Mouse 3, read-out: T1/2 (converted)) was 8.36 h, the Vd (iv, 1 mg/kg, Mouse 3, read-out: Vss—obs) was 21.8 L/kg and the AUC(0-inf) (iv, 1 mg/kg, mean, read-out: AUCInf, Mean) was 496 ng·h/mL. The AUC(0-t) (iv, 1 mg/kg, mean, read-out: AUClast, Mean) was 415 ng·h/mL, the MRT inf (iv, 1 mg/kg, mean, read-out: MRTInf—obs, Mean) was 11.8 h and the half-life (iv, 1 mg/kg, mean, read-out: T1/2, Mean (converted)) was 10.1 h. The Vd (iv, 1 mg/kg, mean, read-out: Vss—obs, Mean) was 23.9 L/kg, the concentration at 0.25 h [5] was 54.5 ng/mL and the concentration at 0.25 h [6] was 60.6 ng/mL. For the same compound, the concentration at 0.25 h [7] was 73.1 ng/mL, the concentration at 0.25 h [8] was 62.7 ng/mL and the concentration at 0.5 h [5] was 92.2 ng/mL. For the same compound, the concentration at 0.5 h [6] was 91.9 ng/mL, the concentration at 0.5 h [7] was 106 ng/mL and the concentration at 0.5 h [8] was 97 ng/mL. The concentration at 1 h [5] was 117 ng/mL.
